# In patent publication US20090143288A1, “Peptide-complement conjugates” (Roche Palo Alto LLC, priority 2007, published 2009):
# Target: HR1 region of HIV-1 gp41 (immobilized biotinylated HR1 peptide Biotin-T-2324) (Human immunodeficiency virus type 1 group M subtype B, UniProt P04582, G556A)
# Assay: BIAcore surface plasmon resonance analysis of the binding to the HR1 region
# Conditions: SPR, BIAcore 3000, 25° C., HBS-P buffer, 1:1 Langmuir binding model
structure (smiles),measurement,value
"CC[C@H](C)[C@H](NC(=O)[C@H](CCC(N)=O)NC(=O)[C@H](C)NC(=O)[C@H](CCC(N)=O)NC(=O)[C@H](CCC(=O)O)NC(=O)[C@H](CC(C)C)NC(=O)[C@H](CC(C)C)NC(=O)[C@H](C)NC(=O)[C@@H](NC(=O)[C@@H](NC(=O)[C@H](CCCCN)NC(=O)[C@H](CCC(N)=O)NC(=O)[C@H](CCC(=O)O)NC(=O)[C@H](Cc1c[nH]c2ccccc12)NC(=O)[C@H](CCC(=O)O)NC(=O)[C@H](CCC(N)=O)NC(=O)[C@H](Cc1c[nH]c2ccccc12)NC(C)=O)[C@@H](C)CC)[C@@H](C)O)C(=O)N[C@@H](CCC(N)=O)C(=O)N[C@@H](CCC(N)=O)C(=O)N[C@@H](CCC(=O)O)C(=O)N[C@@H](CCCCN)C(=O)N[C@@H](CC(N)=O)C(=O)N[C@@H](CCC(=O)O)C(=O)N[C@@H](Cc1ccc(O)cc1)C(=O)N[C@@H](CCC(=O)O)C(=O)N[C@@H](CC(C)C)C(=O)N[C@@H](CCC(N)=O)C(=O)N[C@@H](CCCCN)C(=O)N[C@@H](CC(C)C)C(=O)N[C@@H](CC(=O)O)C(=O)N[C@@H](CCCCN)C(=O)N[C@@H](Cc1c[nH]c2ccccc12)C(=O)N[C@@H](C)C(=O)N[C@@H](CO)C(=O)N[C@@H](CC(C)C)C(=O)N[C@@H](Cc1c[nH]c2ccccc12)C(=O)N[C@@H](CCC(=O)O)C(=O)N[C@@H](Cc1c[nH]c2ccccc12)C(=O)N[C@@H](Cc1ccccc1)C(N)=O [Rob T-1249, WQEWEQKITALLEQAQIQQEKNEYELQKLDKWASLWEWF]",ka (association rate constant),6.4 * 10^5 1/ms
same,kd (dissociation rate constant),0.000845 s⁻¹
